The values below come from patent publication US20260317340A1, “COMPOUNDS, COMPOSITIONS, AND METHODS OF TREATING DISORDERS” (Chengdu Anticancer Bioscience, Ltd., priority 2023, published 2026).

Where two headings read alike, the source gives them in different places.

For test [1], the system named is RPE-Neo or RPE-MYC or RPE-MYC expressing an EGFP-Histone 2B fusion protein. Put plainly: Phenotypic screening assay: arrest in mitosis, change in DNA content (polyploidy), cell death. It counts as cell-based. Conditions: 20 nM to 20 μM, 24, 48 or 72 hours. The procedure, abridged: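 RPE-Neo, RPE-MYC or RPE-MYC EGFP-H2B cells plated 18-24 h before treatment with compounds at 20 nM to 20 μM. Mitotic arrest or DNA-content change scored by automated imaging at 24, 48 or 72 h; proliferation by MTT. Values binned into A–D ranges.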

Test [2] has as its system RPE-Neo or RPE-MYC cells. Put plainly: MTT assay of cellular proliferation (proliferative arrest). Format: cell-based. Conditions: read-out: Min. Effective conc. for Proliferative arrest (>50%).
Test [3] is described as follows: Tumor growth inhibition, CT26 allograft in BAL B/c mice. The following applies: oral, 20 days, 30% PEG300. It counts as in vivo, mouse tumor cell line in BAL B/c mice. As to the method:
(§1) Six- to seven-week-old female BAL B/c nude mice were used in the human cancer cell line NCI-H460, which was derived from a lung cancer patient. Six- to seven-week-old female BAL B/c mice were used in the mouse […] cell line CT26 allograft models. 100 μL cell suspensions containing one million cells with […] (Corning, Cat. No. 354254) were implanted subcutaneously into the right flank of mice. Mice were monitored daily for well-being and weighed twice weekly. Caliper measurements of tumor sizes began when tumors became visible. Tumor volume (TV) was calculated by measuring two perpendicular diameters using the following formula: (L×W2)/2 in which L and W refer to the length and width of a tumor, respectively. When tumors reached an average size of 100 mm3, mice were first ranked according to tumor size and divided into “n” cohorts with X mice in each cohort. Each cohort was then sorted into 1 to X groups according to the random numbers size order generated by the RAND 0)function in Excel. In this way, the mice were randomized into X groups (n=4-6). Then the mice were orally administrated with vehicle (30% PEG 300) or indicated compounds at a dose volume of 5 mL/kg in a double-blinded manner. Oral administration was chosen because this is the intended route of use in the clinic. In all cases, no tumor measurement data or animals were excluded from the data analysis. Percentage of tumor growth inhibition (TGI) was calculated using the following formula: % TGI=average 100×[1−(final TV−initial TV of treatment group)/(final TV−initial TV of control group)]. As set forth in table 3 below, an values of greater than or equal to 35% and less than or equal to 45% […] is marked “C”; a value greater than 45% and less than or equal to 55% is marked “B”; a value greater than 55% and less than or equal to 70% is marked “A”; and […]

Test [4] deals with human cancer cell line NCI-H460. Put plainly: Tumor growth inhibition, NCI-H460 tumors in BAL B/c nude mice. It counts as in vivo, human tumor cell line in BAL B/c nude mice. Conditions: oral, 4 days-on, 3 days-off, 20 days, 30% PEG300. On the procedure:
as §1

Setting [5] is: read-out: Min. Effective conc. for Along with Cell Death.
Where [6] appears, read: ≥5%, read-out: Min. Effective conc. for Mitotic Arrest (≥5%).
The mark [7] stands for this setting: ≥5%, read-out: Min. Effective conc. for Polyploidy (≥5%).

On to `COc1ccc(CN2C(=O)CC(c3ncc(C)o3)=Cc3ccc(-c4cnn(CC(C)O)c4)cc32)cc1` (stereo not shown) [Compound 61, 8-(1-(2-hydroxypropyl)-1H-pyrazol-4-yl)-1-(4-methoxybenzyl)-4-(5-methyloxazol-2-yl)-1,3-dihydro-2H-benzo[b]azepin-2-one], for which the minimal effective concentration in test [1] (setting [5]), in test [1] (setting [6]), in test [1] (setting [7]) and in test [2] was 0.001 to 1 µM each time. For the same molecule, in test [3] (10 mg/kg, 4 days-on, 3 days-off), the TGI % result is “A (greater than 55% and less than or equal to 70%)”.
In the case of `COc1ccc(CN2C(=O)CC(c3cnco3)=Cc3ccc(-c4cnn(CC(C)(C)O)c4)cc32)cc1` [Compound 96, 8-(1-(2-Hydroxy-2-methylpropyl)-1H-pyrazol-4-yl)-1-(4-methoxybenzyl)-4-(oxazol-5-yl)-1,3-dihydro-2H-benzo[b]azepin-2-one], the minimal effective concentration in test [1] (setting [5]), in test [1] (setting [6]), in test [1] (setting [7]) and in test [2] was 0.001 to 1 µM each time. Also, in test [3] (20 mg/kg, 4 days-on, 3 days-off), the TGI % result is “A (greater than 55% and less than or equal to 70%)”.
Consider `COc1ccc(CN2C(=O)CC(c3nnc(C4CC4)o3)=Cc3ccc(-c4cnn(CC(C)(C)O)c4)cc32)cc1` [Compound 94, 4-(5-Cyclopropyl-1,3,4-oxadiazol-2-yl)-8-(1-(2-hydroxy-2-methylpropyl)-1H-pyrazol-4-yl)-1-(4-methoxybenzyl)-1,3-dihydro-2H-benzo[b]azepin-2-one], for which the minimal effective concentration in test [1] (setting [5]), in test [1] (setting [6]), in test [1] (setting [7]) and in test [2] was 0.001 to 1 µM in each case. In test [3] (8 mg/kg, 4 days-on, 3 days-off), the TGI % entry was “B (greater than 45% and less than or equal to 55%)”.
For `COc1ccc(CN2C(=O)CC(c3ncc(C)o3)=Cc3ccc(-c4cnn(CC(C)(C)O)c4)cc32)cc1` [Compound 37, 8-(1-(2-hydroxy-2-methylpropyl)-1H-pyrazol-4-yl)-1-(4-methoxybenzyl)-4-(5-methyloxazol-2-yl)-1,3-dihydro-2H-benzo[b]azepin-2-one], the minimal effective concentration in test [1] (setting [5]), in test [1] (setting [6]), in test [1] (setting [7]) and in test [2] was 0.001 to 1 µM in each case. The TGI % result was “A (greater than 55% and less than or equal to 70%)” in test [4] (8 mg/kg); “B (greater than 45% and less than or equal to 55%)” in test [3] (8 mg/kg, 3 days-on, 4 days-off).
As for `COc1ccc(CN2C(=O)CC(c3ncc(C)o3)=Cc3ccc(-c4cnn(CC5CC5)c4)cc32)cc1` [Compound 53, 8-(1-(cyclopropylmethyl)-1H-pyrazol-4-yl)-1-(4-methoxybenzyl)-4-(5-methyloxazol-2-yl)-1,3-dihydro-2H-benzo[b]azepin-2-one], the minimal effective concentration in test [1] (setting [5]), in test [1] (setting [6]), in test [1] (setting [7]) and in test [2] was 0.001 to 1 µM throughout. Besides, the TGI % result in test [4] (40 mg/kg) was “C (greater than or equal to 35% and less than or equal to 45% μM)”.
Turning to `COc1ccc(CN2C(=O)CC(c3ncc(C)o3)=Cc3ccc(-c4ccc(=O)n(C)c4)cc32)cc1` [Compound 45, 1-(4-methoxybenzyl)-8-(1-methyl-6-oxo-1,6-dihydropyridin-3-yl)-4-(5-methyloxazol-2-yl)-1,3-dihydro-2H-benzo[b]azepin-2-one], the minimal effective concentration in test [1] (setting [5]), in test [1] (setting [6]), in test [1] (setting [7]) and in test [2] was 0.001 to 1 µM in each case. Besides, the TGI % result in test [4] (36 mg/kg) was “A (greater than 55% and less than or equal to 70%)”.
